Each sequence was assayed against TcdB1 (Clostridioides difficile, UniProt P18177).
Sequence of TcdB1 (P18177 2-2366 limits assumed): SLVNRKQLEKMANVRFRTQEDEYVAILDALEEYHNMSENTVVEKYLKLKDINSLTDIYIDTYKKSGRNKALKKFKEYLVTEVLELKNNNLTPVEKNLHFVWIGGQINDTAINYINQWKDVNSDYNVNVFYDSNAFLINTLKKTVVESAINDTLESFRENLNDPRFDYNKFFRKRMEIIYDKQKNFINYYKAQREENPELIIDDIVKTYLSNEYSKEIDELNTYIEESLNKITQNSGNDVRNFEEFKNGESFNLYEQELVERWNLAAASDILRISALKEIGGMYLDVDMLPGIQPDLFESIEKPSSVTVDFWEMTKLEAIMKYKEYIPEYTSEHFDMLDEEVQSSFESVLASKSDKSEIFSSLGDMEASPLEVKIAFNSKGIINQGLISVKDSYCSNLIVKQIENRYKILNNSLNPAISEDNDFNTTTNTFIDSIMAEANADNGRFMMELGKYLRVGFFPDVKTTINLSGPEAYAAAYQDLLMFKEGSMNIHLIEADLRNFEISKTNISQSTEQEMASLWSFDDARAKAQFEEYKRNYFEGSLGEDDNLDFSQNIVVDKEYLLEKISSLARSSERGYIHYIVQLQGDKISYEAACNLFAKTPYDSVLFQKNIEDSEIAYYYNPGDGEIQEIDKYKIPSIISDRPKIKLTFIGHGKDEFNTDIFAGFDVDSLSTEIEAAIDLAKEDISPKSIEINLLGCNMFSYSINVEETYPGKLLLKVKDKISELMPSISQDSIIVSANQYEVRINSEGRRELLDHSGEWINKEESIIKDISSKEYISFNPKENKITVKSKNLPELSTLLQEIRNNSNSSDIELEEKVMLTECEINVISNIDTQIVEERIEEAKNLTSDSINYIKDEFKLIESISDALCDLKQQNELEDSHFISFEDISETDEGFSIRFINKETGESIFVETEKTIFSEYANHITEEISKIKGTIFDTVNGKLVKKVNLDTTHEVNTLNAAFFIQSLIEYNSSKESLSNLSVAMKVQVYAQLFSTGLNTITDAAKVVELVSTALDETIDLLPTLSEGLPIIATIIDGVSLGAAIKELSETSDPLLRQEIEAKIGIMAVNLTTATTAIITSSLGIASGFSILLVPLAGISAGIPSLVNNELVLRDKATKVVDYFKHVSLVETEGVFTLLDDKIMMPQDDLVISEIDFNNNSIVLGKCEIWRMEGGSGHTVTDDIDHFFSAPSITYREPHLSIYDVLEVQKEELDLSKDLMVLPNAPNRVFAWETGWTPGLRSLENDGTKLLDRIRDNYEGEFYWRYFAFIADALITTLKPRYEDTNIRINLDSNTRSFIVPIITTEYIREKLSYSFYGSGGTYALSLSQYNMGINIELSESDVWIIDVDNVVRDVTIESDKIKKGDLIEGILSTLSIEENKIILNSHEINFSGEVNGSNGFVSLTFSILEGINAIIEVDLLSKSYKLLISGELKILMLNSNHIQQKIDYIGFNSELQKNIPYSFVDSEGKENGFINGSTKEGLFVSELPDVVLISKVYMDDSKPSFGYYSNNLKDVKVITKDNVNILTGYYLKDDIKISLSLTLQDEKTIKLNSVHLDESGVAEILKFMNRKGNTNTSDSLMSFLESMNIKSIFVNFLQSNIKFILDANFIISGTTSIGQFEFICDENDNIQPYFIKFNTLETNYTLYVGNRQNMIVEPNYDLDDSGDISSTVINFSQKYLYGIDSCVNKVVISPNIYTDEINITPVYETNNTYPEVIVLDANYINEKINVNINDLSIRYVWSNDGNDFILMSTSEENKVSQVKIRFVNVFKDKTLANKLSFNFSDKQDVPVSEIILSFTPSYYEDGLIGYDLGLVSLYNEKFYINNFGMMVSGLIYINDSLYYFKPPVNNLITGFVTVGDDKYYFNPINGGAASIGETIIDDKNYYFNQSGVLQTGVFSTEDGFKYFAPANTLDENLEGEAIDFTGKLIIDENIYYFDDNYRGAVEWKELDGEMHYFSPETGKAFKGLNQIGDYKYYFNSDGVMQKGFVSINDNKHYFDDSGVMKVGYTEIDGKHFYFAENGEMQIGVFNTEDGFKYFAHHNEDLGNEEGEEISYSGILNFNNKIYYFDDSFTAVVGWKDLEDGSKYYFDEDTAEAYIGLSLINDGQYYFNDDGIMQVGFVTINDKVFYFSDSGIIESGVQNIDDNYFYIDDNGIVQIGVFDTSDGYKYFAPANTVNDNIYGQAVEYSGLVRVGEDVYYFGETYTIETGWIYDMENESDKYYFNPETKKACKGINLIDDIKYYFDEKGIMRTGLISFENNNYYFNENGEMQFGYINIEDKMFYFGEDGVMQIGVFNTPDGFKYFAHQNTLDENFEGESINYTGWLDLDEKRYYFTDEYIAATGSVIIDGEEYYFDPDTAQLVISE
For NVFKDKTISDKISFNFSDK [PepB2-GN5-6DK], the “TcdB inhibitory activity of PepB2/PepB1 substitution variants” value was “inhibitory activity of the resulting peptide was lost”.
In the case of NVFKDNTISDKISFNFSDK [PepB2-G5D], the “TcdB inhibitory activity of PepB2/PepB1 substitution variants” value was “inhibitor activity was lost”.
With NVFKGKTISDKISFNFSDK [PepB2-N6K] the “TcdB inhibitory activity of PepB2/PepB1 substitution variants” value was “TcdB inhibitory activity also disappeared”.
With NVFKGNTLANKLSFNFSDK [PepB1-DK5-6GN] the “TcdB inhibitory activity of PepB2/PepB1 substitution variants” value was “Inhibitory activity was gained”.
For NVFKSNTISDKISFNFSDK [PepB2-G5S], the “TcdB inhibitory activity of PepB2/PepB1 substitution variants” value was “activity was also lost”.
